Organism: Rattus norvegicus
Experiment: Open TG-GATES - Regimen: Single
Assay type: toxicity, organism-based, Sprague-Dawley
Design: regimen Single, gender Male, age 6 weeks
Conditions: in vivo, po, 150 mg/kg, route gavage, dose level High; for APTT / Bas / Eos / Fbg / Hb / Ht / Lym / MCH / MCHC / MCV / Mono / Neu / PT / Plat / RBC / Ret / WBC: tissue Blood; for KIDNEY_L / KIDNEY_R / KIDNEY_TOTAL: tissue Kidney; for LIVER: tissue Liver; for A/G / ALP / ALT / AST / BUN / CRE / Ca / Cl / DBIL / GLC / IP / K / LDH / Na / PL / RALB / TBIL / TC / TG / TP / gamma-GTP: tissue Plasma

CC1=C(CC(=O)O)c2cc(F)ccc2/C1=C\c1ccc([S+](C)[O-])cc1 (configuration not stated)
TERMINAL_BW (3 h): 202.5 g | APTT (3 h): 18.7 s | Bas (3 h): 0% | Eos (3 h): 0.8% | Fbg (3 h): 270.6 mg/dL | Hb (3 h): 12.9 g/dL | Ht (3 h): 38.9% | Lym (3 h): 76.4% | MCH (3 h): 21 pg | MCHC (3 h): 33.2% | MCV (3 h): 63.4 fL | Mono (3 h): 3% | Neu (3 h): 18.8% | PT (3 h): 14.3 s | Plat (3 h): 126.3 x10_4/uL | RBC (3 h): 615.4 x10_4/ul | Ret (3 h): 7.8% | WBC (3 h): 82 x10_2/uL | KIDNEY_L (3 h): 0.9 g | KIDNEY_R (3 h): 0.9 g | KIDNEY_TOTAL (3 h): 1.8 g | LIVER (3 h): 8.9 g | A/G (3 h): 1 | ALP (3 h): 1334 IU/L | ALT (3 h): 39.2 IU/L | AST (3 h): 71.2 IU/L | BUN (3 h): 10.4 mg/dL | CRE (3 h): 0.2 mg/dL | Ca (3 h): 10.7 mg/dL | Cl (3 h): 103.8 meq/L | DBIL (3 h): 0.006 mg/dL | GLC (3 h): 161.2 mg/dL | IP (3 h): 8.1 mg/dL | K (3 h): 4 meq/L | LDH (3 h): 67.8 IU/L | Na (3 h): 139.8 meq/L | PL (3 h): 144.4 mg/dL | RALB (3 h): 2.5 g/dL | TBIL (3 h): 0.044 mg/dL | TC (3 h): 75.6 mg/dL | TG (3 h): 71.4 mg/dL | TP (3 h): 5.2 g/dL | gamma-GTP (3 h): 1 IU/L | TERMINAL_BW (6 h): 201.1 g | APTT (6 h): 17.9 s | Bas (6 h): 0% | Eos (6 h): 0.4% | Fbg (6 h): 280 mg/dL | Hb (6 h): 13.3 g/dL | Ht (6 h): 40.9% | Lym (6 h): 65.8% | MCH (6 h): 21 pg | MCHC (6 h): 32.7% | MCV (6 h): 64.4 fL | Mono (6 h): 3.6% | Neu (6 h): 29.2% | PT (6 h): 14 s | Plat (6 h): 133.5 x10_4/uL | RBC (6 h): 635 x10_4/ul | Ret (6 h): 8.1% | WBC (6 h): 68.2 x10_2/uL | KIDNEY_L (6 h): 0.9 g | KIDNEY_R (6 h): 1 g | KIDNEY_TOTAL (6 h): 1.9 g | LIVER (6 h): 8.2 g | A/G (6 h): 1 | ALP (6 h): 1506 IU/L | ALT (6 h): 40 IU/L | AST (6 h): 71.4 IU/L | BUN (6 h): 10.4 mg/dL | CRE (6 h): 0.2 mg/dL | Ca (6 h): 10.7 mg/dL | Cl (6 h): 104.8 meq/L | DBIL (6 h): 0.01 mg/dL | GLC (6 h): 168.4 mg/dL | IP (6 h): 9.3 mg/dL | K (6 h): 4.1 meq/L | LDH (6 h): 77.6 IU/L | Na (6 h): 141.2 meq/L | PL (6 h): 135.4 mg/dL | RALB (6 h): 2.6 g/dL | TBIL (6 h): 0.04 mg/dL | TC (6 h): 70.6 mg/dL | TG (6 h): 33 mg/dL | TP (6 h): 5.3 g/dL | gamma-GTP (6 h): 1.4 IU/L | TERMINAL_BW (9 h): 200.1 g | APTT (9 h): 16.2 s | Bas (9 h): 0% | Eos (9 h): 1% | Fbg (9 h): 294.8 mg/dL | Hb (9 h): 13.3 g/dL | Ht (9 h): 40.5% | Lym (9 h): 67.4% | MCH (9 h): 20.8 pg | MCHC (9 h): 32.8% | MCV (9 h): 63.5 fL | Mono (9 h): 3.2% | Neu (9 h): 28% | PT (9 h): 13.8 s | Plat (9 h): 122 x10_4/uL | RBC (9 h): 638 x10_4/ul | Ret (9 h): 7.8% | WBC (9 h): 50.2 x10_2/uL | KIDNEY_L (9 h): 0.9 g | KIDNEY_R (9 h): 0.9 g | KIDNEY_TOTAL (9 h): 1.8 g | LIVER (9 h): 7.6 g | A/G (9 h): 1 | ALP (9 h): 1365 IU/L | ALT (9 h): 37.4 IU/L | AST (9 h): 68.8 IU/L | BUN (9 h): 9.8 mg/dL | CRE (9 h): 0.2 mg/dL | Ca (9 h): 10.4 mg/dL | Cl (9 h): 107 meq/L | DBIL (9 h): 0.014 mg/dL | GLC (9 h): 169.4 mg/dL | IP (9 h): 10.1 mg/dL | K (9 h): 4.2 meq/L | LDH (9 h): 72 IU/L | Na (9 h): 141.4 meq/L | PL (9 h): 127.8 mg/dL | RALB (9 h): 2.6 g/dL | TBIL (9 h): 0.046 mg/dL | TC (9 h): 68.4 mg/dL | TG (9 h): 40 mg/dL | TP (9 h): 5.2 g/dL | gamma-GTP (9 h): 1 IU/L | TERMINAL_BW (24 h): 203.3 g | APTT (24 h): 15.4 s | Bas (24 h): 0% | Eos (24 h): 0.4% | Fbg (24 h): 378 mg/dL | Hb (24 h): 10.3 g/dL | Ht (24 h): 32% | Lym (24 h): 54.4% | MCH (24 h): 20.7 pg | MCHC (24 h): 32.3% | MCV (24 h): 64 fL | Mono (24 h): 2.4% | Neu (24 h): 42% | PT (24 h): 13 s | Plat (24 h): 78.4 x10_4/uL | RBC (24 h): 500.2 x10_4/ul | Ret (24 h): 8.5% | WBC (24 h): 96.3 x10_2/uL | KIDNEY_L (24 h): 0.9 g | KIDNEY_R (24 h): 0.9 g | KIDNEY_TOTAL (24 h): 1.8 g | LIVER (24 h): 9.1 g | A/G (24 h): 0.9 | ALP (24 h): 747.4 IU/L | ALT (24 h): 30.2 IU/L | AST (24 h): 42.6 IU/L | BUN (24 h): 24 mg/dL | CRE (24 h): 0.2 mg/dL | Ca (24 h): 9.3 mg/dL | Cl (24 h): 105.2 meq/L | DBIL (24 h): 0.008 mg/dL | GLC (24 h): 162.4 mg/dL | IP (24 h): 9.8 mg/dL | K (24 h): 5.1 meq/L | LDH (24 h): 58.8 IU/L | Na (24 h): 137.2 meq/L | PL (24 h): 117 mg/dL | RALB (24 h): 1.5 g/dL | TBIL (24 h): 0.024 mg/dL | TC (24 h): 67.4 mg/dL | TG (24 h): 126.6 mg/dL | TP (24 h): 3.2 g/dL | gamma-GTP (24 h): 0.8 IU/L
